These results are taken from patent US8486996B2, “Aroylfuranes and aroylthiophenes” (Basilea Pharmaceutica AG, priority 2006, dated 2013).

What all share (assay type): cell-based
Experiment [1] deals with tumor cells. As to the kind of experiment: MTS proliferation assay (72 h read-out). The method, boiled down:
(§1)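 Tumour cells (1.5×10^3–10^4 per well) were seeded 24 h before compound addition, then exposed to 0.001–10 μM final compound for 72 h under culture conditions. MTS reagent was added for a further 3 h, absorbance was read at 492 nm, and results were binned into scores A–D.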
(In general: Formazan colour is commonly taken as a measure of viable cells.)

Experiment [2] is described as follows: MTS proliferation assay (72 h read-out). To be noted: MRC5 cells. In outline: as §1
In experiment [3] the test system is tumor cells. As to the kind of experiment: Mitochondrial membrane potential, JC-1 (read-out 48 h). To be noted: JC-1, 48 h. The method, boiled down:
(§2)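 Tumor cells were treated with test compounds (adherent cells after 24 h of attachment, suspension cells immediately), medium holding up to 5% DMSO. After 48 h, JC-1 (2-5 μg/ml in added medium) was applied for 30 min. Fluorescence microscopy (FITC/TRITC filters) scored the fraction of cells with dissipated mitochondrial membrane potential as categories A-D.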

Test in experiment [4]: as above
Particulars: PBL, JC-1, 48 h. The method, boiled down:
as §2

In experiment [5] the test system is tumor cells. As to the kind of experiment: Hoechst 33342 nuclear staining (48 h read-out). The method, boiled down:
(§3)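 Adherent cells pre-spread 24 h before dosing, suspension cells dosed at seeding; compounds at 0.001 μM-10 μM final, 48 h at culture conditions. Hoechst 33342 (2-5 μg/ml) added for 30 min, then fluorescence microscopy scoring of apoptotic nuclear fraction and apoptosis-specific morphology, reported as scores A-D.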

Experiment [6] can be described thus: Hoechst 33342 nuclear staining (48 h read-out). The method, boiled down: as §3
Setting [7] is: HT1080 cells, read-out: MTS proliferation assay IC50, HT1080.
Where [8] appears, read: HeLa cells, read-out: MTS proliferation assay IC50, HeLa.
Setting [9] is: Jily cells, read-out: MTS proliferation assay IC50, Jily.
[10] abbreviates: Jurkat cells, read-out: MTS proliferation assay IC50, Jurkat.
Where [11] appears, read: HeLa cells, read-out: Mitochondrial membrane potential (read-out 48 h) HeLa.
Where [12] appears, read: Jily cells, read-out: Mitochondrial membrane potential (read-out 48 h) Jily.
Where [13] appears, read: Jurkat cells, read-out: Mitochondrial membrane potential (read-out 48 h) Jurkat.
Where [14] appears, read: MCF7 cells, read-out: Mitochondrial membrane potential (read-out 48 h) MCF7.
[15] abbreviates: HeLa cells, read-out: Hoechst 33342 nuclear staining EC50, HeLa.
Where [16] appears, read: Jily cells, read-out: Hoechst 33342 nuclear staining EC50, Jily.
Where [17] appears, read: Jurkat cells, read-out: Hoechst 33342 nuclear staining EC50, Jurkat.
Where [18] appears, read: MRC5 cells, read-out: Hoechst 33342 nuclear staining EC50, MRC5.
Setting [19] is: PBL, read-out: Hoechst 33342 nuclear staining EC50, PBL.

pEC50, pIC50: −log10 of the molar value. Where two headings read alike, the source gives them in different places.

`CCOc1ccccc1C(=O)c1oc2ccc(I)cc2c1N` [Example 43]: the pIC50 in experiment [1] (setting [7]), in experiment [1] (setting [8]), in experiment [1] (setting [9]), in experiment [1] (setting [10]) and in experiment [2] was less than 6.00 in each case. The pEC50 in experiment [3] (setting [11]), in experiment [3] (setting [12]), in experiment [3] (setting [13]), in experiment [3] (setting [14]), in experiment [4] and in experiment [5] (setting [15]) was less than 6.00 each time. Further, the pEC50 in experiment [5] (setting [16]), in experiment [5] (setting [17]), in experiment [6] (setting [18]) and in experiment [6] (setting [19]) was less than 6.00 in each case.

`CCOc1ccc(-n2cccc2)cc1C(=O)c1oc2ccc(Cl)cc2c1N` [Example 22]: the pIC50 in experiment [1] (setting [7]), in experiment [1] (setting [8]), in experiment [1] (setting [9]), in experiment [1] (setting [10]) and in experiment [2] was 6.00 to 7.00 throughout. Moreover, the pEC50 was 6.00 to 7.00 in experiment [3] (setting [11]); 6.00 to 7.00 in experiment [3] (setting [12]); 6.00 to 7.00 in experiment [3] (setting [13]); less than 6.00 in experiment [3] (setting [14]); less than 6.00 in experiment [4]; 6.00 to 7.00 in experiment [5] (setting [15]). Moreover, the pEC50 in experiment [5] (setting [16]) is 6.00 to 7.00; in experiment [5] (setting [17]), 6.00 to 7.00; in experiment [6] (setting [18]), 6.00 to 7.00; in experiment [6] (setting [19]), less than 6.00.

For the compound `CC1CN(c2ncccc2C(=O)c2oc3ccc(Cl)cc3c2N)CC(C)O1` (stereo not shown) [Example 83], the pIC50 in experiment [1] (setting [7]) is 7.00 to 8.00; in experiment [1] (setting [8]), 6.00 to 7.00; in experiment [1] (setting [9]), 7.00 to 8.00; in experiment [1] (setting [10]), 7.00 to 8.00; in experiment [2] it was 7.00 to 8.00. The pEC50 in experiment [3] (setting [11]) was 6.00 to 7.00; in experiment [3] (setting [12]) it was 6.00 to 7.00; in experiment [3] (setting [13]), 7.00 to 8.00; in experiment [3] (setting [14]), 6.00 to 7.00; in experiment [4], less than 6.00; in experiment [5] (setting [15]) it was 6.00 to 7.00. The pEC50 in experiment [5] (setting [16]) was 6.00 to 7.00; in experiment [5] (setting [17]), 7.00 to 8.00; in experiment [6] (setting [18]) it was 6.00 to 7.00; in experiment [6] (setting [19]) it was less than 6.00.

With `COc1ccc2oc(C(=O)c3cc(F)ccc3-n3ccnc3)cc2c1` [Example 105], the pIC50 in experiment [1] (setting [7]), in experiment [1] (setting [8]), in experiment [1] (setting [9]), in experiment [1] (setting [10]) and in experiment [2] was less than 6.00 in each case. For the same compound, the pEC50 in experiment [3] (setting [11]), in experiment [3] (setting [12]), in experiment [3] (setting [13]), in experiment [3] (setting [14]), in experiment [4] and in experiment [5] (setting [15]) was less than 6.00 each time. In addition, the pEC50 in experiment [5] (setting [16]), in experiment [5] (setting [17]), in experiment [6] (setting [18]) and in experiment [6] (setting [19]) was less than 6.00 in each case.

Consider `CCOc1ccccc1C(=O)c1oc2ccc(F)cc2c1N` [Example 45], for which the pIC50 in experiment [1] (setting [7]), in experiment [1] (setting [8]), in experiment [1] (setting [9]), in experiment [1] (setting [10]) and in experiment [2] was less than 6.00 each time. In addition, the pEC50 in experiment [3] (setting [11]), in experiment [3] (setting [12]), in experiment [3] (setting [13]), in experiment [3] (setting [14]), in experiment [4] and in experiment [5] (setting [15]) was less than 6.00 in each case. For the same compound, the pEC50 in experiment [5] (setting [16]), in experiment [5] (setting [17]), in experiment [6] (setting [18]) and in experiment [6] (setting [19]) was less than 6.00 throughout.

With `COc1ccc2oc(C(=O)c3cccnc3N3CCCCC3C)cc2c1` (stereo not shown) [Example 89], the pIC50 in experiment [1] (setting [7]) was 6.00 to 7.00; in experiment [1] (setting [8]), 6.00 to 7.00; in experiment [1] (setting [9]), 7.00 to 8.00; in experiment [1] (setting [10]) it was 7.00 to 8.00; in experiment [2], 6.00 to 7.00. Also, the pEC50 in experiment [3] (setting [11]) was 6.00 to 7.00; in experiment [3] (setting [12]), 6.00 to 7.00; in experiment [3] (setting [13]), 6.00 to 7.00; in experiment [3] (setting [14]), 6.00 to 7.00; in experiment [4] it was less than 6.00; in experiment [5] (setting [15]), 6.00 to 7.00. In addition, the pEC50 in experiment [5] (setting [16]) is 6.00 to 7.00; in experiment [5] (setting [17]), 6.00 to 7.00; in experiment [6] (setting [18]) it was 6.00 to 7.00; in experiment [6] (setting [19]) it was less than 6.00.

With `CCOc1ccc(F)cc1C(=O)c1cc2cc(OCOC)ccc2o1` [Example 69], the pIC50 in experiment [1] (setting [7]), in experiment [1] (setting [8]), in experiment [1] (setting [9]) and in experiment [2] was 6.00 to 7.00 throughout. Besides, the pEC50 in experiment [3] (setting [11]) is less than 6.00; in experiment [3] (setting [12]) it was 6.00 to 7.00; in experiment [3] (setting [13]), 6.00 to 7.00; in experiment [3] (setting [14]), less than 6.00; in experiment [4], less than 6.00; in experiment [5] (setting [15]), 6.00 to 7.00. For the same compound, the pEC50 in experiment [5] (setting [16]) was 6.00 to 7.00; in experiment [5] (setting [17]), 6.00 to 7.00; in experiment [6] (setting [18]) it was less than 6.00; in experiment [6] (setting [19]) it was less than 6.00.

As to `CCOc1ccccc1C(=O)c1oc2ccc(NC(=O)OC(C)(C)C)cc2c1N` [Example 51], the pIC50 in experiment [1] (setting [7]), in experiment [1] (setting [8]), in experiment [1] (setting [9]) and in experiment [2] was less than 6.00 throughout. The pEC50 in experiment [3] (setting [11]), in experiment [3] (setting [12]), in experiment [3] (setting [13]), in experiment [3] (setting [14]), in experiment [4] and in experiment [5] (setting [15]) was less than 6.00 throughout. Besides, the pEC50 in experiment [5] (setting [16]), in experiment [5] (setting [17]), in experiment [6] (setting [18]) and in experiment [6] (setting [19]) was less than 6.00 each time.

For the compound `CCOc1ccc(F)cc1C(=O)c1cc2cc(OC(C)=O)ccc2o1` [Example 65], the pIC50 in experiment [1] (setting [7]) is more than 8.00; in experiment [1] (setting [8]) it was 7.00 to 8.00; in experiment [1] (setting [9]) it was more than 8.00; in experiment [1] (setting [10]), more than 8.00; in experiment [2] it was more than 8.00. The pEC50 in experiment [3] (setting [11]) was 7.00 to 8.00; in experiment [3] (setting [12]), 7.00 to 8.00; in experiment [3] (setting [13]) it was more than 8.00; in experiment [3] (setting [14]) it was less than 6.00; in experiment [4] it was less than 6.00; in experiment [5] (setting [15]) it was 7.00 to 8.00. The pEC50 in experiment [5] (setting [16]) was 7.00 to 8.00; in experiment [5] (setting [17]), more than 8.00; in experiment [6] (setting [18]), 6.00 to 7.00; in experiment [6] (setting [19]), less than 6.00.

On to `CCOc1ccccc1C(=O)c1oc2ccc(Cl)cc2c1O` [Example 32, 5-Chloro-2-(2-ethoxybenzoyl)-3-hydroxybenzofuran], for which the pIC50 in experiment [1] (Homo sapiens, HT-1080, HT1080 cells, read-out: MTS proliferation assay IC50, HT1080) is less than 6.00; in experiment [1] (Homo sapiens, HeLa cells, read-out: MTS proliferation assay IC50, HeLa) it was less than 6.00; in experiment [1] (Homo sapiens, Jurkat cells, read-out: MTS proliferation assay IC50, Jurkat) it was less than 6.00; in experiment [1] (setting [9]), less than 6.00; in experiment [2] (Homo sapiens), less than 6.00. For the same compound, the pEC50 in experiment [3] (Homo sapiens, HeLa cells, read-out: Mitochondrial membrane potential (read-out 48 h) HeLa) was less than 6.00; in experiment [3] (Homo sapiens, Jurkat cells, read-out: Mitochondrial membrane potential (read-out 48 h) Jurkat) it was less than 6.00; in experiment [3] (Homo sapiens, MCF7 cells, read-out: Mitochondrial membrane potential (read-out 48 h) MCF7), less than 6.00; in experiment [3] (setting [12]), less than 6.00; in experiment [4], less than 6.00; in experiment [5] (Homo sapiens, HeLa cells, read-out: Hoechst 33342 nuclear staining EC50, HeLa), less than 6.00. The pEC50 in experiment [5] (Homo sapiens, Jurkat cells, read-out: Hoechst 33342 nuclear staining EC50, Jurkat) was less than 6.00; in experiment [5] (setting [16]) it was less than 6.00; in experiment [6] (Homo sapiens, MRC5 cells, read-out: Hoechst 33342 nuclear staining EC50, MRC5), less than 6.00; in experiment [6] (setting [19]), less than 6.00.

In the case of `COc1ccc2oc(C(=O)c3cccnc3N3CCCCC3)cc2c1` [Example 92], the pIC50 in experiment [1] (setting [7]), in experiment [1] (setting [8]), in experiment [1] (setting [9]), in experiment [1] (setting [10]) and in experiment [2] was less than 6.00 each time. Also, the pEC50 is 7.00 to 8.00 in experiment [3] (setting [11]); 7.00 to 8.00 in experiment [3] (setting [12]); 7.00 to 8.00 in experiment [3] (setting [13]); 7.00 to 8.00 in experiment [3] (setting [14]); less than 6.00 in experiment [4]; less than 6.00 in experiment [5] (setting [15]). Further, the pEC50 in experiment [5] (setting [16]), in experiment [5] (setting [17]), in experiment [6] (setting [18]) and in experiment [6] (setting [19]) was less than 6.00 each time.
